Results as given in patent publication US7244758B2, “N-type calcium channel blockers” (Neuromed Pharmaceuticals Ltd., priority 2003, dated 2007).
Like-named read-outs stand apart in the source and are kept apart here.

Legend:
rat formalin model = assay: Formalin-induced pain model (paw flinches); assay type: in vivo; settings: 30 mg/kg IP, 10 min before formalin, saline control=100%
Experimental: The effects of intrathecally delivered compounds of the invention on the rat formalin model were measured. The compounds were reconstituted to stock solutions of approximately 10 mg/ml in propylene glycol. Eight Holtzman male rats of 275-375 g size were randomly selected per test article.
The following study groups were used, with test article, vehicle control (propylene glycol) and saline delivered intraperitoneally (IP):
Prior to initiation of drug delivery baseline behavioral and testing data were taken.
On the morning of testing, a small metal band (0.5 g) was loosely placed around the right hind paw. The rat was placed in a cylindrical Plexiglas chamber for adaptation a minimum of 30 minutes. Test Article or Vehicle Control Article was administered 10 minutes prior to formalin injection (50 μl of 5% formalin) into the dorsal surface of the right hindpaw of the rat. The animal was then placed into the chamber of the automated formalin apparatus where movement of the formalin injected paw was monitored and the number of paw flinches tallied by minute over the next 60 minutes (Malmberg, A. B., et al., Anesthesiology (1993) 79:270-281).
Results are presented as Maximum Possible Effect±SEM, where saline control=100%.

[1] = target: T1, human α1G T-type channels (Homo sapiens, UniProt O43497); assay: Block of α1G T-type channels, whole-cell patch clamp in HEK cells; assay type: cell-based
T1 construct: expressed in transfected cells
Experimental: Standard patch-clamp techniques were employed to identify blockers of T-type currents. Briefly, previously described HEK cell lines stably expressing human α1G T-type channels were used for all the recordings (passage #: 4-20, 37° C., 5% CO2). To obtain T-type currents, plastic dishes containing semi-confluent cells were positioned on the stage of a ZEISS AXIOVERT S100 microscope after replacing the culture medium with external solution (see below). Whole-cell patches were obtained using pipettes (borosilicate glass with filament, O.D.: 1.5 mm, I.D.: 0.86 mm, 10 cm length), fabricated on a SUTTER P-97 puller with resistance values of ˜5 MΩ (see below for internal solution).
In the non-inactivating protocol, the holding potential is set at −110 mV and with a pre-pulse at −100 mV for 1 second prior to the test pulse at −40 mV for 50 ms. […]
Test compounds were dissolved in external solution, 0.1-0.01% DMSO. After ˜10 min rest, they were applied by gravity close to the cell using a WPI microfil tubing. The “non-inactivated” pre-pulse was used to examine the resting block of a compound. The “inactivated” protocol was employed to study voltage-dependent block. However, the initial data shown below were mainly obtained using the non-inactivated protocol only. IC50 values are shown for various compounds of the invention in Table 6.

[2] = target: T2, rat brain N-type calcium channel subunits (α1B+α2δ+β1b) (Rattus norvegicus, UniProt Q02294); assay: N-type calcium channel block, whole cell patch clamp in HEK 293 cells; assay type: cell-based; settings: holding −80 mV to +10 mV, 5 mM Ba
T2 construct: expressed in transfected cells; host or cells: HEK 293
Experimental: (§1) Antagonist activity was measured using whole cell patch recordings on human embryonic kidney cells either stably or transiently expressing rat α1B+α2δ+β1b channels (N-type channels) with 5 mM barium as a charge carrier. P/Q-type channels (α1A+α2δ+β1b cDNA subunits) and L-type channels (α1C+α2δ+β1b cDNA subunits) were also transiently expressed in HEK 293 cells.
For transient expression, host cells, such as human embryonic kidney cells, HEK 293 (ATCC# CRL 1573) were grown in standard DMEM medium supplemented with 2 mM glutamine and 10% fetal bovine serum. HEK 293 cells were transfected by a standard calcium-phosphate-DNA coprecipitation method using the rat α1B+β1b+α2δ N-type calcium channel subunits in a vertebrate expression vector (for example, see Current Protocols in Molecular Biology).
After an incubation period of from 24 to 72 hrs the culture medium was removed and replaced with external recording solution (see below). Whole cell patch clamp experiments were performed using an Axopatch 200B amplifier (Axon Instruments, Burlingame, Calif.) linked to an IBM compatible personal computer equipped with pCLAMP software. Borosilicate glass patch pipettes (Sutter Instrument Co., Novato, Calif.) were polished (Microforge, Narishige, Japan) to a resistance of about 4 MΩ when filled with cesium methanesulfonate internal solution (composition in MM: 109 CsCH3 SO4, 4 MgCl2, 9 EGTA, 9 HEPES, pH 7.2). Cells were bathed in 5 mM Ba^++ (in mM: 5 BaCl2, 1 MgCl2, 10 HEPES, 40 tetraethylammonium chloride, 10 glucose, 87.5 CsCl pH 7.2). […] Drugs were perfused directly into the vicinity of the cells using a microperfusion system.
Normalized dose-response curves were fit (Sigmaplot 4.0, SPSS Inc., Chicago, Ill.) by the Hill equation to determine IC50 values. Steady-state inactivation curves were plotted as the normalized test pulse amplitude following 5 s inactivating prepulses at +10 mV increments. Inactivation curves were fit (Sigmaplot 4.0) with the Boltzman equation, Ipeak (normalized)=1/(1+exp((V−Vh)z/25.6)), where V and Vh are the conditioning and half inactivation potentials, respectively, and z is the slope factor.
N-type calcium channel blocking activity was assayed in human embryonic kidney cells, HEK 293, stably transfected with the rat brain N-type calcium channel subunits (α1B+α2δ+β1b cDNA subunits). Alternatively, N-type calcium channels (α1B+α2δ+β1b cDNA subunits), L-type channels (α1C+α2δ+β1b cDNA subunits) and P/Q-type channels (α1A+α2δ+β1b cDNA subunits) were transiently expressed in HEK 293 cells. Briefly, cells were cultured in Dulbecco's modified eagle medium (DMEM) supplemented with 10% fetal bovine serum, 200 U/ml penicillin and 0.2 mg/ml streptomycin at 37° C. with 5% CO2. At 85% confluency cells were split with 0.25% trypsin/1 mM EDTA and plated at 10% confluency on glass coverslips. At 12 hours the medium was replaced and the cells transiently transfected using a standard calcium phosphate protocol and the appropriate calcium channel cDNA's. Fresh DMEM was supplied and the cells transferred to 28° C./5% CO2. Cells were incubated for 1 to 2 days to whole cell recording.
Whole cell patch clamp experiments were performed using an Axopatch 200B amplifier (Axon Instruments, Burlingame, Calif.) linked to a personal computer equipped with pCLAMP software. The external and internal recording solutions contained, respectively, 5 mM BaCl2, […], 10 mM HEPES, 40 mM TEACl, 10 mM glucose, 87.5 mM CsCl (pH 7.2) and 108 mM CsMS, 4 mM MgCl2, 9 mM EGTA, 9 mM HEPES (pH 7.2). Currents were typically elicited from a holding potential of −80 mV to +10 mV using Clampex software (Axon Instruments).

[3] = test system: L-type channels (α1C+α2δ+β1b); assay: Selectivity patch clamp, L-type channels transiently expressed in HEK 293 cells; assay type: cell-based; settings: N-type vs L-type
Experimental: as §1
(§2) After an incubation period of from 24 to 72 hrs the culture medium was removed and replaced with external recording solution (see below). Whole cell patch clamp experiments were performed using an Axopatch 200B amplifier (Axon Instruments, Burlingame, Calif.) linked to an IBM compatible personal computer equipped with pCLAMP software. Borosilicate glass patch pipettes (Sutter Instrument Co., Novato, Calif.) were polished (Microforge, Narishige, Japan) to a resistance of about 4 MΩ when filled with cesium methanesulfonate internal solution (composition in MM: 109 CsCH3 SO4, 4 MgCl2, 9 EGTA, 9 HEPES, pH 7.2). Cells were bathed in 5 mM Ba^++ (in mM: 5 BaCl2, 1 MgCl2, 10 HEPES, 40 tetraethylammonium chloride, 10 glucose, 87.5 CsCl pH 7.2). Current data shown were elicited by a train of 100 ms test pulses at 0.066 Hz from −100 mV and/or −80 mV to various potentials (min. −20 mV, max. +30 mV). Drugs were perfused directly into the vicinity of the cells using a microperfusion system. […]

[4] = test system: P/Q-type channels (α1A+α2δ+β1b); assay: Selectivity patch clamp, P/Q-type channels transiently expressed in HEK 293 cells; assay type: cell-based; settings: N-type vs P/Q-type
Experimental: as §1, §2

[5] = inactivation protocol (voltage-dependent block), read-out: IC50 at −80 mV
[6] = non-inactivating protocol, pre-pulse −100 mV (resting block), read-out: IC50 at −100 mV
[7] = low frequency stimulation 0.067 Hz (tonic block), read-out: IC50 at 0.067 Hz
[8] = pulse frequency 0.2 Hz (frequency dependent block), read-out: IC50 at 0.2 Hz

T1 sequence (O43497 whole entry): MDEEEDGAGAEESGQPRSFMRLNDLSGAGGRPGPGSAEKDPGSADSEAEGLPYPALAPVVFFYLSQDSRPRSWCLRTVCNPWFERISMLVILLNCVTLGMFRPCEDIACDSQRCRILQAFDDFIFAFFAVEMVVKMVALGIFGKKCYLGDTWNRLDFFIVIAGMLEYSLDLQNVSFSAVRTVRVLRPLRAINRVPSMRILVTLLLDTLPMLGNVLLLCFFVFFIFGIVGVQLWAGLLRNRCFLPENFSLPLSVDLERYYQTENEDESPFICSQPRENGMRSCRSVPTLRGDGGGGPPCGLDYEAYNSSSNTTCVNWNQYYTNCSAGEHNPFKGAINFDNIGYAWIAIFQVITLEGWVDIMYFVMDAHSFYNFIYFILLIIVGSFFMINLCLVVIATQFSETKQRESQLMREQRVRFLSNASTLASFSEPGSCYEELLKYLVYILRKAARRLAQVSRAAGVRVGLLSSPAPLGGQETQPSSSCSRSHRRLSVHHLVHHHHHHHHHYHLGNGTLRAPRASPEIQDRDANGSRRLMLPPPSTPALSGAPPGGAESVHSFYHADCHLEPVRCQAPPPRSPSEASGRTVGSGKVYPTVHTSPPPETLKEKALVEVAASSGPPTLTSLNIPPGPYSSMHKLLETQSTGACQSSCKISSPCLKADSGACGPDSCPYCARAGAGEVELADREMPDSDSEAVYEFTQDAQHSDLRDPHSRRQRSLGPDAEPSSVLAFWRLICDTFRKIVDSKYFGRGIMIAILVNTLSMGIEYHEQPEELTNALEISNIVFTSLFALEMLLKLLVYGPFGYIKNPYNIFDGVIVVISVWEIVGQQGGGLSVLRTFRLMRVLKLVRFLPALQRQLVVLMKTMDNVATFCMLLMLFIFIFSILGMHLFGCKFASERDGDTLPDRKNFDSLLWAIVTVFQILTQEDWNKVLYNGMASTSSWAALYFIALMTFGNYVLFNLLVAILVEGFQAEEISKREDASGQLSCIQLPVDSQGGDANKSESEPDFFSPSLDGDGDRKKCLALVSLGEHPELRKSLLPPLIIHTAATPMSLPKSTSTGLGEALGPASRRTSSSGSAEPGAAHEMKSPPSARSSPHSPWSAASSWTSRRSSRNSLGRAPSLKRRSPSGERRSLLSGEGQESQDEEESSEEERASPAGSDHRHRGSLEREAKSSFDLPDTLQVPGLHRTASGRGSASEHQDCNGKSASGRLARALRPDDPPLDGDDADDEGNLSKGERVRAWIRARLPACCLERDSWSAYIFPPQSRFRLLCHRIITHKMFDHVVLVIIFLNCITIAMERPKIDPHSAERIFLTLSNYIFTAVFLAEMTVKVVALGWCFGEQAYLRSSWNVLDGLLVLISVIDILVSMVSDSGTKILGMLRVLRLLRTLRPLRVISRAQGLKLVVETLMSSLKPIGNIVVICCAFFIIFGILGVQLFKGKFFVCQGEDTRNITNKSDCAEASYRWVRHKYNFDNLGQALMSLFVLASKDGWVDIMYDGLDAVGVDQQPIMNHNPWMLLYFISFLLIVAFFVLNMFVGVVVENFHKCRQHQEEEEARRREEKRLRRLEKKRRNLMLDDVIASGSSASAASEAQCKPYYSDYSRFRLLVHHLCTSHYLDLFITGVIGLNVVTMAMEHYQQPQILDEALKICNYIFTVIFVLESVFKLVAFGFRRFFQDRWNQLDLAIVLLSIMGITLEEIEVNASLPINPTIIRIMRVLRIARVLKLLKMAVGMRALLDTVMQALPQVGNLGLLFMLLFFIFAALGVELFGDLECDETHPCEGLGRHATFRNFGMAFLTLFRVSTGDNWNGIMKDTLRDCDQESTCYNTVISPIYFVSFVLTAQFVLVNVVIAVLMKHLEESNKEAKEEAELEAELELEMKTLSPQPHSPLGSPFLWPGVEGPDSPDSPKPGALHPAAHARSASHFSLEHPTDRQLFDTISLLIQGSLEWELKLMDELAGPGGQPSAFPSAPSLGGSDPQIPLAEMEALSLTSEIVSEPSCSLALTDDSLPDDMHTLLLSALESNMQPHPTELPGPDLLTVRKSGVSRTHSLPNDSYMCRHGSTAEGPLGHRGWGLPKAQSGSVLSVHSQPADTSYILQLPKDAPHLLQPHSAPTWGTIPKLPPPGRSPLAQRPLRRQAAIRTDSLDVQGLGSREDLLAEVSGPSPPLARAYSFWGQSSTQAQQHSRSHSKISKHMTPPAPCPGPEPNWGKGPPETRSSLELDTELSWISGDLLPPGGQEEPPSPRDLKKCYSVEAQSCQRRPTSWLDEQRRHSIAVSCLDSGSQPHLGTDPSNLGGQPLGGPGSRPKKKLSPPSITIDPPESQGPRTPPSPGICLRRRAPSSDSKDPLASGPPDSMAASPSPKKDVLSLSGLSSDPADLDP
T2 sequence (Q02294 whole entry): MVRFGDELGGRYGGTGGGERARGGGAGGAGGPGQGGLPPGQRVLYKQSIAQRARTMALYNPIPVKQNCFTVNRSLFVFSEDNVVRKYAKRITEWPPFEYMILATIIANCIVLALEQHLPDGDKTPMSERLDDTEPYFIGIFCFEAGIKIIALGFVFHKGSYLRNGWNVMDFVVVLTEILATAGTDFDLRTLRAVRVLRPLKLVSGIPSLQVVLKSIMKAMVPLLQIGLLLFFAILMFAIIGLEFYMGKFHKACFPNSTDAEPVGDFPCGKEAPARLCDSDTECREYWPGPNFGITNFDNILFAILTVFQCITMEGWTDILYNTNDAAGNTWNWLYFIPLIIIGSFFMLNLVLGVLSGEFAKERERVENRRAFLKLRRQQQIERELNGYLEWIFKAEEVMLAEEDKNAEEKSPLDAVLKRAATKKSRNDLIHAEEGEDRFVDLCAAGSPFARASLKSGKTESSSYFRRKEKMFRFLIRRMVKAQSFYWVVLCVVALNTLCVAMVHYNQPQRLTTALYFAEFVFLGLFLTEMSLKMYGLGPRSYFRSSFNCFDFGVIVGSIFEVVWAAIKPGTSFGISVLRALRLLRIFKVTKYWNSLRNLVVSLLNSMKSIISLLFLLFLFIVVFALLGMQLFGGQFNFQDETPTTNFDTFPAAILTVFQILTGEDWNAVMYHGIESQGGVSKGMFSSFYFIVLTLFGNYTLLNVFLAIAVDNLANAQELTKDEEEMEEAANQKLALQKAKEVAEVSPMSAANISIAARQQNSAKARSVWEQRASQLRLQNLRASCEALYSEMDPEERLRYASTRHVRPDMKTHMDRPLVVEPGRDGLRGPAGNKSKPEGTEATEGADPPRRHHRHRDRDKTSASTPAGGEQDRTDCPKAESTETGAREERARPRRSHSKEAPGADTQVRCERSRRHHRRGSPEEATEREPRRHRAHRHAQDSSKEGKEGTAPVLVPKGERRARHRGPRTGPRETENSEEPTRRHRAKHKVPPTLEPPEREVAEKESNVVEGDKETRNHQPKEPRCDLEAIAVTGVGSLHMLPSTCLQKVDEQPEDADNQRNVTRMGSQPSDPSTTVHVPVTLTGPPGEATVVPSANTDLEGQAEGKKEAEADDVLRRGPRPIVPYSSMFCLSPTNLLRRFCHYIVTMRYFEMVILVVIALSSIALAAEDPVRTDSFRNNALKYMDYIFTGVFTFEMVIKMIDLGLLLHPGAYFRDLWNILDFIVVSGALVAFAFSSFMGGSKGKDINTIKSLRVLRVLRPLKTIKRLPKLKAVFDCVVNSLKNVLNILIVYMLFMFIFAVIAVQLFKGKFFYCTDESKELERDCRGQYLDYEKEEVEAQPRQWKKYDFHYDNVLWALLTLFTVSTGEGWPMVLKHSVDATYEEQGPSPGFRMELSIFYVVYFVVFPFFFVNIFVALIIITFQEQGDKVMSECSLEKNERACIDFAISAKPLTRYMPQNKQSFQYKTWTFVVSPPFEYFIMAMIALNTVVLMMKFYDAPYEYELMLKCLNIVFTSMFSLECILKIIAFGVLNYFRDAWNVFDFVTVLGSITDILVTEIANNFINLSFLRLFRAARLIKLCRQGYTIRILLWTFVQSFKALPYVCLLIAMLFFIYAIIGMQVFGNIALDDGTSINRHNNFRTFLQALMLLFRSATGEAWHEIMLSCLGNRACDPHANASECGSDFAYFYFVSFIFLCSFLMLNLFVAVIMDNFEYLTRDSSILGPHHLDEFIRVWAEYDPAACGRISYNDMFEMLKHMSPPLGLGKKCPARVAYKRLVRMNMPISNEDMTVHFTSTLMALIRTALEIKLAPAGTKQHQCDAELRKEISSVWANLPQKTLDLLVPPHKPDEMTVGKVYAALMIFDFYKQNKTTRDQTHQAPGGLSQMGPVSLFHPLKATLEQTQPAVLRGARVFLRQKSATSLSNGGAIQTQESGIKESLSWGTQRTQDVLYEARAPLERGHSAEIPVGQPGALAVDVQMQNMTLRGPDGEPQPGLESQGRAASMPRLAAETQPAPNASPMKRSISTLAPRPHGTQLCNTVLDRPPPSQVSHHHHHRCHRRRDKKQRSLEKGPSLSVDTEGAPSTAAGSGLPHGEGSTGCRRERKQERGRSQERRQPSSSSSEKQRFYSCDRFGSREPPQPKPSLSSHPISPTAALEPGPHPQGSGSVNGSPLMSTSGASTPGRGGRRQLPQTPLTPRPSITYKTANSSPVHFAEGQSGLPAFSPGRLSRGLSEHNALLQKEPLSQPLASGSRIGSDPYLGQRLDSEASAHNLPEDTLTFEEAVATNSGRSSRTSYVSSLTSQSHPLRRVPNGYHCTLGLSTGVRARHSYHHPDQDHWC

SMILES	IC50 [1, 5]	IC50 [1, 6]	IC50 [2, 7]	IC50 [2, 8]	Maximum Possible Effect ± SEM, Phase I (rat formalin model)	Maximum Possible Effect ± SEM, Phase II (rat formalin model)	Maximum Possible Effect ± SEM, Phase IIA (rat formalin model)	selectivity for N-type over L-type channels [3]	selectivity for N-type over P/Q-type channels [4]
O=C(CN(CC(=O)N(c1ccccc1)c1ccccc1)CC1CCN(C(c2ccccc2)c2ccccc2)C1)N(c1ccccc1)c1ccccc1 (stereo not drawn) [Compound P46]	5 nM	23 nM	7 nM	1 nM	–	–	–	–	–
O=C(COc1ccc(F)cc1F)NCC1CCN(C(=O)CCCCC(c2ccc(F)cc2)c2ccc(F)cc2)C1 (stereo not drawn) [Compound P31]	196 nM	460 nM	563 nM	220 nM	–	–	–	–	–
O=C(CN(c1ccccc1)c1ccccc1)NCC1CCN(C(c2ccccc2)c2ccccc2)C1 (stereo not drawn) [Compound P45]	67 nM	410 nM	512 nM	247 nM	–	–	–	–	–
O=C(CC(c1ccccc1)c1ccccc1)NCC1CCN(C(c2ccccc2)c2ccc(Cl)cc2)C1 (stereo not drawn) [Compound P26]	42 nM	137 nM	263 nM	236 nM	–	–	–	–	–
O=C(CC(c1ccccc1)c1ccccc1)NCC1CCN(C(c2ccccc2)c2cccc(Cl)c2)C1 (stereo not drawn) [Compound P38]	21 nM	94 nM	80 nM	24 nM	–	–	–	–	–

More lines, in order of falling IC50 [1, 6], values ahead:

IC50 [1, 5]	IC50 [1, 6]	IC50 [2, 7]	IC50 [2, 8]	SMILES	Maximum Possible Effect ± SEM, Phase I (rat formalin model)	Maximum Possible Effect ± SEM, Phase II (rat formalin model)	Maximum Possible Effect ± SEM, Phase IIA (rat formalin model)	selectivity for N-type over L-type channels [3]	selectivity for N-type over P/Q-type channels [4]
28 nM	111 nM	23 nM	8 nM	O=C(CC(c1ccccc1)c1ccccc1)NCC1CCN(C(c2ccccc2)c2ccccc2Cl)C1 (stereo not drawn) [Compound P37]	–	–	–	–	–
58 nM	79 nM	120 nM	86 nM	COc1cc(CN(C)CC2CCN(C(=O)CCCCC(c3ccc(F)cc3)c3ccc(F)cc3)C2)cc(OC)c1OC (stereo not drawn) [Compound P58]	–	–	–	–	–
12 nM	30 nM	100 nM	20 nM	O=C(COc1ccc(Cl)cc1)NCC1CCN(C(=O)CCCCC(c2ccc(F)cc2)c2ccc(F)cc2)C1 (stereo not drawn) [Compound P36]	–	–	–	–	–
–	29 nM	60 nM	–	CC(C)(C)c1cc(C(=O)NCC2CCN(C(=O)CCCCC(c3ccc(F)cc3)c3ccc(F)cc3)C2)cc(C(C)(C)C)c1 (stereo not drawn) [Compound P17]	74 ± 8%	84 ± 9%	79 ± 9%	greater than 75 fold	approximately 31 fold
8 nM	24 nM	295 nM	185 nM	O=C(NCC1CCN(C(c2ccccc2)c2ccccc2)C1)NC(c1ccccc1)c1ccccc1 (stereo not drawn) [Compound P47]	–	–	–	–	–
–	12 nM	380 nM	210 nM	O=C(NCC1CCN(C(=O)CCCCC(c2ccc(F)cc2)c2ccc(F)cc2)C1)c1cc(C(F)(F)F)cc(C(F)(F)F)c1 (stereo not drawn) [Compound P24]	66 ± 11%	38 ± 7%	20 ± 4%	–	–
0.7 nM	1.5 nM	–	–	COc1c(C(C)(C)C)cc(C(=O)NCC2CCN(C(=O)CCCCC(c3ccc(F)cc3)c3ccc(F)cc3)C2)cc1C(C)(C)C (stereo not drawn) [Compound P13]	85 ± 9%	86 ± 7%	86 ± 5%	–	–
